Experimental data taken from patent publication US10508120B2, “TYK2 inhibitors and uses thereof” (Nimbus Lakshmi, Inc., priority 2017, dated 2019).

What was measured:
JAK2 kinase domain (JH1) = JAK2 kinase domain (JH1) (Homo sapiens (Human), UniProt O60674); assay: JAK2 Radioactive Kinase Assay; type: biochemical; conditions: compound at 10 μM, ATP 10 μM; for inhibition at 10 µM: read-out: JAK2 JH1% Inhibition @ 10 μM
Outline: (§1)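 Each kinase domain is incubated with test compound at 10 μM. Activity is then measured radiometrically and expressed as percent inhibition relative to uninhibited enzyme.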

[1] = target: human TYK2 (JH2domain-pseudokinase) (Homo sapiens (Human), UniProt P29597); assay: TYK2 JH2 Domain Binding Assay (KINOMEscan)
Outline: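 The construct was human TYK2 G556–D888 fused to the NFkB DNA-binding domain and expressed in HEK293 cells; unpurified extract was incubated with compound and liganded beads for 1 hour at room temperature.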

Tyk2 kinase domain (DH1) = Tyk2 kinase domain (DH1) (Homo sapiens (Human), UniProt P29597); assay: Tyk2 Radioactive Kinase Assay; type: biochemical; conditions: compound at 10 μM, ATP 10 μM; for inhibition at 10 µM: read-out: Tyk2 JH1% Inhibition @ 10 μM
Outline: as §1

Sequence of human TYK2 (JH2domain-pseudokinase) (P29597 556-888): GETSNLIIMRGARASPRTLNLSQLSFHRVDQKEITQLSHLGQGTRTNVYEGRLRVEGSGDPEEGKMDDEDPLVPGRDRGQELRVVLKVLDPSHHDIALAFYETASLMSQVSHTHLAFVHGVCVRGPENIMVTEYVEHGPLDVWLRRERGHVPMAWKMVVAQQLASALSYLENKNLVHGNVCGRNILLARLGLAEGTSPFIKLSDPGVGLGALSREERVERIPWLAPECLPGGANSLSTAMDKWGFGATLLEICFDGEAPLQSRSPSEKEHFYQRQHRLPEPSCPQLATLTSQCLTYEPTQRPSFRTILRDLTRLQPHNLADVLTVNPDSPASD
Sequence of Tyk2 kinase domain (DH1) (P29597 897-1176): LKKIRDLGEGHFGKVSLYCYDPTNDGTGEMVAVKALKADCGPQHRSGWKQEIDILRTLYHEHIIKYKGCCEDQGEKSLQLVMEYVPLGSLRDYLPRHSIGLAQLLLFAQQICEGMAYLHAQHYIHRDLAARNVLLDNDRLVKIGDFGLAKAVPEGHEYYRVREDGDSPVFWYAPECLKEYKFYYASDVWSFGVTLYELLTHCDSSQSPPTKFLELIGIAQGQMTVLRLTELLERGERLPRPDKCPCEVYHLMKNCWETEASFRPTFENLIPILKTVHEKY
Sequence of JAK2 kinase domain (JH1) (O60674 849-1124): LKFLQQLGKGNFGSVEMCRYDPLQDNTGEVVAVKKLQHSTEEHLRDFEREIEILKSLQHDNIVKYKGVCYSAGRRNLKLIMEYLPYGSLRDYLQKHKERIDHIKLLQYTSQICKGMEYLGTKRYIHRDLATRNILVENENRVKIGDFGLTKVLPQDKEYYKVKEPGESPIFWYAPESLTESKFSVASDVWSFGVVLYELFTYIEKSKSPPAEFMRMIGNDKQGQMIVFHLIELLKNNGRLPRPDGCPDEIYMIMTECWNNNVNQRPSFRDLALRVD

Kd [1] [nM] | inhibition at 10 µM (JAK2 kinase domain (JH1)) [%] | inhibition at 10 µM (Tyk2 kinase domain (DH1)) [%] | SMILES | JAK2 JH1% Inhibition @ 10 μM (JAK2 kinase domain (JH1)) | Tyk2 JH1% Inhibition @ 10 μM (Tyk2 kinase domain (DH1))
< 0.2 | < 50 | < 50 | CNc1cc(Nc2cccn(-c3cnn(C)c3F)c2=O)nc2c(C(=O)N[C@H]3C[C@H]3F)cnn12 [I-719] |  | 
1 to 10 |  |  | CNc1cc(Nc2cccc(N3CCC4(CCCO4)CC3)n2)nc2c(C(=O)N[C@@H]3CC[C@@H]3O)cnn12 [I-720] | A (percent inhibition at 10 μM lower than 50) | A (percent inhibition at 10 μM lower than 50)
< 0.2 | < 50 | < 50 | CNc1cc(Nc2cccc(N3CCC4(CCCO4)CC3)n2)nc2c(C(=O)N[C@H]3CC[C@H]3O)cnn12 [I-721] |  | 
0.2 to 1 | < 50 | < 50 | CNc1cc(Nc2cccn([C@H]3CC[C@](C)(OC)CC3)c2=O)nc2c(C(=O)N[C@H]3CC[C@H]3O)cnn12 [I-723, N-((1R,2S)-2-hydroxycyclobutyl)-5-((1-((1R,4R)-4-methoxy-4-methylcyclohexyl)-2-oxo-1,2-dihydropyridin-3-yl)amino)-7-(methylamino)pyrazolo[1,5-a]pyrimidine-3-carboxamide] |  | 
< 0.2 | < 50 | < 50 | CNc1cc(Nc2cccn([C@@H]3CCCOC3)c2=O)nc2c(C(=O)N[C@@H]3CC[C@H]3O)cnn12 [I-727] |  | 
< 0.2 |  |  | CNc1cc(Nc2cccn([C@H]3CCCOC3)c2=O)nc2c(C(=O)N[C@H]3CC[C@H](O)C3)cnn12 [I-728] | A (percent inhibition at 10 μM lower than 50) | A (percent inhibition at 10 μM lower than 50)
< 0.2 | < 50 | < 50 | CNc1cc(Nc2cccn([C@H]3CCCOC3)c2=O)nc2c(C(=O)N[C@@H]3CC[C@@H](O)C3)cnn12 [I-729] |  | 
< 0.2 | < 50 | < 50 | CNc1cc(Nc2cccn(-c3ccccn3)c2=O)nc2c(C(=O)NC[C@H](C)CO)cnn12 [I-730] |  | 
0.2 to 1 | < 50 | < 50 | CNc1cc(Nc2cccn(-c3ccccn3)c2=O)nc2c(C(=O)NC[C@@H](C)CO)cnn12 [I-731] |  | 
0.2 to 1 |  |  | CNc1cc(Nc2cccn([C@@H]3CCCOC3)c2=O)nc2c(C(=O)N[C@H]3CCC[C@H](O)C3)cnn12 [I-734] | A (percent inhibition at 10 μM lower than 50) | A (percent inhibition at 10 μM lower than 50)
< 0.2 | < 50 | < 50 | CNc1cc(Nc2cccn([C@@H]3CCCOC3)c2=O)nc2c(C(=O)N[C@@H]3CCC[C@@H](O)C3)cnn12 [I-735] |  | 
< 0.2 | < 50 | < 50 | CNc1cc(Nc2cccn(-c3nc(C)co3)c2=O)nc2c(C(=O)NC[C@H](C)CO)cnn12 [I-736] |  | 
< 0.2 | < 50 | < 50 | CNc1cc(Nc2cccn(-c3nc(C)co3)c2=O)nc2c(C(=O)NC[C@@H](C)CO)cnn12 [I-737] |  | 
0.2 to 1 |  |  | CNc1cc(Nc2cccn([C@@H]3CCCOC3)c2=O)nc2c(C(=O)N[C@H]3CC[C@H](O)C3)cnn12 [I-738] | A (percent inhibition at 10 μM lower than 50) | A (percent inhibition at 10 μM lower than 50)
0.2 to 1 | < 50 | < 50 | CNc1cc(Nc2cccn([C@@H]3CCCOC3)c2=O)nc2c(C(=O)N[C@@H]3CC[C@@H](O)C3)cnn12 [I-739] |  | 
< 0.2 | < 50 | < 50 | CNc1cc(Nc2cc(Cl)cn(C3CCCOC3)c2=O)nc2c(C(=O)N[C@H]3[C@@H]4COC[C@@H]43)cnn12 (stereo partly drawn) [I-741, N-((1R,5S,6r)-3-oxabicyclo[3.1.0]hexan-6-yl)-5-((5-chloro-2-oxo-1-(tetrahydro-2H-pyran-3-yl)-1,2-dihydropyridin-3-yl)amino)-7-(methylamino)pyrazolo[1,5-a]pyrimidine-3-carboxamide] |  | 
< 0.2 | < 50 | < 50 | CNc1cc(Nc2cccn([C@@H]3CC[C@H]3O)c2=O)nc2c(C(=O)NC3CC3)cnn12 [I-742] |  | 
< 0.2 | < 50 | < 50 | CNc1cc(Nc2cccn(-c3ccccn3)c2=O)nc2c(C(=O)N[C@@H]3CC[C@@H]3O)cnn12 [I-743] |  | 
< 0.2 | < 50 | < 50 | CNc1cc(Nc2cccn([C@H]3CCCOC3)c2=O)nc2c(C(=O)N[C@H]3CC[C@H]3O)cnn12 [I-745] |  | 
0.2 to 1 | < 50 | < 50 | CNc1cc(Nc2cccn([C@H]3CC[C@H](OC)CC3)c2=O)nc2c(C(=O)N[C@H]3COC[C@H]3O)cnn12 [I-746] |  | 
< 0.2 | < 50 | < 50 | CNc1cc(Nc2cccc3ocnc23)nc2c(C(=O)NCC3(CO)CC3)cnn12 [I-749] |  | 
0.2 to 1 | < 50 | < 50 | CNc1cc(Nc2cccn([C@@H]3CCCOC3)c2=O)nc2c(C(=O)N[C@@H]3CC[C@@H]3O)cnn12 [I-752] |  | 
0.2 to 1 | < 50 | < 50 | CNc1cc(Nc2cccn([C@H]3CCCOC3)c2=O)nc2c(C(=O)N[C@H]3COC[C@H]3O)cnn12 [I-753] |  | 

Continued, molecule first:

SMILES | Kd [1] [nM] | inhibition at 10 µM (JAK2 kinase domain (JH1)) [%] | inhibition at 10 µM (Tyk2 kinase domain (DH1)) [%] | JAK2 JH1% Inhibition @ 10 μM (JAK2 kinase domain (JH1)) | Tyk2 JH1% Inhibition @ 10 μM (Tyk2 kinase domain (DH1))
CNc1cc(Nc2cccn([C@H]3CCN(C)C[C@H]3F)c2=O)nc2c(C(=O)NC3CC3)cnn12 [I-687] | 0.2 to 1 |  |  | A (percent inhibition at 10 μM lower than 50) | A (percent inhibition at 10 μM lower than 50)
CNc1cc(Nc2cccn([C@@H]3CCN(C)C[C@@H]3F)c2=O)nc2c(C(=O)NC3CC3)cnn12 [I-688] | < 0.2 | < 50 | < 50 |  | 
CNc1cc(Nc2cccn(C3CCN(C)CC3)c2=O)nc2c(C(=O)N[C@H]3CC[C@H]3O)cnn12 [I-689] | 0.2 to 1 | < 50 | < 50 |  | 
CNc1cc(Nc2cccn(C3CCN(C)CC3)c2=O)nc2c(C(=O)N[C@@H]3CC[C@@H]3O)cnn12 [I-690] | 1 to 10 |  |  | A (percent inhibition at 10 μM lower than 50) | A (percent inhibition at 10 μM lower than 50)
CNc1cc(Nc2cccc([C@H]3CCCOC3)n2)nc2c(C(=O)N[C@@H]3COC[C@@H]3O)cnn12 [I-691] | 1 to 10 |  |  | A (percent inhibition at 10 μM lower than 50) | A (percent inhibition at 10 μM lower than 50)
CNc1cc(Nc2cccc([C@H]3CCCOC3)n2)nc2c(C(=O)N[C@H]3COC[C@H]3O)cnn12 [I-692] | < 0.2 | < 50 | < 50 |  | 
CNc1cc(Nc2cccc([C@H]3CCCOC3)n2)nc2c(C(=O)NC3COCC3O)cnn12 (stereo partly drawn) [I-695, N-(4-hydroytetrahydrofuran-3-yl)-7-(methylamino)-5-((6-((R)-tetrahydro-2H-pyran-3-yl)pyridin-2-yl)amino)pyrazolo[1,5-a]pyrimidine-3-carboxamide] | < 0.2 | < 50 | < 50 |  | 
CNc1cc(Nc2cccn([C@H]3CCCOC3)c2=O)nc2c(C(=O)N[C@@H]3CC[C@@H]3O)cnn12 [I-696] | < 0.2 | < 50 | < 50 |  | 
CNc1cc(Nc2cccn([C@H]3CCCOC3)c2=O)nc2c(C(=O)N[C@H]3CC[C@@H]3O)cnn12 [I-697] | < 0.2 | < 50 | < 50 |  | 
CNc1cc(Nc2cccn([C@@H]3CCCOC3)c2=O)nc2c(C(=O)N[C@H]3CC[C@@H]3O)cnn12 [I-698] | < 0.2 | < 50 | < 50 |  | 
CNc1cc(Nc2cccn([C@H]3CCCOC3)c2=O)nc2c(C(=O)NCC3(CO)CC3)cnn12 [I-699] | < 0.2 | < 50 | < 50 |  | 
CNc1cc(Nc2cccn([C@@H]3CCCOC3)c2=O)nc2c(C(=O)NCC3(CO)CC3)cnn12 [I-700] | 0.2 to 1 | < 50 | < 50 |  | 
CNc1cc(Nc2cccn([C@@H]3CCCOC3)c2=O)nc2c(C(=O)N[C@H]3CCC[C@H](O)C3)cnn12 [I-703] | < 0.2 | < 50 | < 50 |  | 
CNc1cc(Nc2cccn(-c3ccccn3)c2=O)nc2c(C(=O)N[C@H]3CC[C@@H]3O)cnn12 [I-705] | < 0.2 | < 50 | < 50 |  | 
CNc1cc(Nc2cccn(-c3nc(C)co3)c2=O)nc2c(C(=O)N[C@H]3CC[C@H]3O)cnn12 [I-707] | < 0.2 | < 50 | < 50 |  | 
CNc1cc(Nc2cccc(N3CCC34COC4)n2)nc2c(C(=O)NC3CC3)cnn12 [I-708] | < 0.2 | < 50 | < 50 |  | 
CNc1cc(Nc2cc(Cl)cn(C3CCOCC3)c2=O)nc2c(C(=O)N[C@@H]3CC[C@@H]3O)cnn12 [I-713] | < 0.2 | < 50 | < 50 |  | 
CNc1cc(Nc2cccn(-c3cnco3)c2=O)nc2c(C(=O)NC3CC3)cnn12 [I-714] | < 0.2 | < 50 | < 50 |  | 
CNc1cc(Nc2cccn(-c3cnc(C)o3)c2=O)nc2c(C(=O)NC3CC3)cnn12 [I-717] | < 0.2 | < 50 | < 50 |  | 
